Data reported in PubChem BioAssay (NCI).
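Following 48 hours of exposure in 96-well plates, responses at five concentrations were used to interpolate endpoints linearly. GI50 marks 50% less growth. TGI denotes the concentration required for complete inhibition of growth.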

How the values were obtained:
Test in all cases: NCI-60 cell line screen, 48 h
[1] = system: A498 renal
[2] = system: CAKI-1 renal
[3] = system: DU-145 prostate
[4] = system: HL-60(TB) leukemia
[5] = system: MCF7 breast
[6] = system: OVCAR-3 ovarian
[7] = system: OVCAR-4 ovarian
[8] = system: PC-3 prostate
[9] = system: SR leukemia
[10] = system: UACC-62 melanoma

Compound | GI50 [1] | TGI [1] | GI50 [2] | TGI [2] | GI50 [3] | TGI [3] | GI50 [4] | TGI [4] | GI50 [5] | TGI [5] | GI50 [6] | TGI [6] | GI50 [7] | TGI [7] | GI50 [8] | TGI [8] | GI50 [9] | TGI [9] | GI50 [10] | TGI [10]
Fc1ccc(-c2nn3ccccc3c2-c2ccncc2)cc1 | > 18300 nM | > 25000 nM | 11800 nM | > 25000 nM | > 25000 nM | > 25000 nM | > 25000 nM | > 25000 nM | > 23100 nM | > 25000 nM | > 25000 nM | > 25000 nM | > 25000 nM | > 25000 nM | > 25000 nM | > 25000 nM | > 25000 nM | > 25000 nM | > 18900 nM | > 25000 nM
CCN(CC)c1ccc(-c2cc(-c3cc(OC)c(OC)c(OC)c3)nc(N3CCC(O)CC3)c2C#N)cc1 | 1070 nM | 14200 nM | 33.4 nM | 708 nM | 877 nM | 14600 nM | 497 nM | 2330 nM | 628 nM | – | 1170 nM | 3020 nM | 789 nM | > 100000 nM | 713 nM | > 100000 nM | 399 nM | 2610 nM | 264 nM | 662 nM
Cn1c(=O)c(Oc2ccc(F)cc2F)cc2cnc(N[C@@H]3CCOC3)nc21 | > 20400 nM | > 25000 nM | > 25000 nM | > 25000 nM | > 25000 nM | > 25000 nM | > 25000 nM | > 25000 nM | > 25000 nM | > 25000 nM | > 25000 nM | > 25000 nM | > 25000 nM | > 25000 nM | > 25000 nM | > 25000 nM | > 25000 nM | > 25000 nM | > 25000 nM | > 25000 nM
C#C[C@@]1(O)[C@@H](CO)O[C@@H](n2cc(C(F)(F)F)c3c(N)ncnc32)[C@@H]1O | 168 nM | 533 nM | 2190 nM | > 100000 nM | 433 nM | > 100000 nM | 278 nM | 984 nM | 71.1 nM | – | 727 nM | 4890 nM | 2410 nM | > 100000 nM | 427 nM | > 21100 nM | 306 nM | 1700 nM | 707 nM | 2630 nM
N#Cc1nc(C#N)c(Sc2ccccc2)c(Sc2ccccc2)c1Sc1ccccc1 | 2720 nM | 7050 nM | 1220 nM | > 100000 nM | 667 nM | 2880 nM | 1880 nM | > 29500 nM | 565 nM | 2410 nM | 1450 nM | 2890 nM | 2740 nM | > 27800 nM | 753 nM | 21500 nM | 305 nM | > 100000 nM | 1370 nM | 3200 nM
CCC(=O)N1C/C(=C/c2ccc(Br)cc2)C(=O)/C(=C/c2ccc(Br)cc2)C1 | 1430 nM | 3060 nM | 1210 nM | – | 1020 nM | 3220 nM | 1860 nM | 5630 nM | 271 nM | 1560 nM | 588 nM | 1560 nM | 1010 nM | 3750 nM | 632 nM | 2290 nM | – | 1020 nM | 724 nM | 2060 nM
COc1ccc(C2C(C#N)=C(N)Oc3c2sc2c(Br)cccc32)cc1 (centres undefined) | 1370 nM | 13900 nM | 2470 nM | 18200 nM | 3270 nM | 11200 nM | 1120 nM | 3730 nM | 467 nM | 12000 nM | 979 nM | 3750 nM | 3020 nM | 21900 nM | 2860 nM | 17300 nM | 473 nM | 3370 nM | 996 nM | 15400 nM
Cc1ccc(-c2nc(-c3nccc4ccccc34)oc2-c2ccccc2)cc1 | – | > 100000 nM | – | > 100000 nM | – | > 100000 nM | – | > 100000 nM | – | > 100000 nM | – | > 100000 nM | – | > 100000 nM | – | > 100000 nM | – | > 100000 nM | – | > 100000 nM
Clc1ccc2c(c1)N(C1CCCN(Cc3ccccc3)C1)c1ccccc1S2 (centres undefined) | 14700 nM | > 100000 nM | 4380 nM | 24000 nM | 4030 nM | 19700 nM | 4520 nM | 72500 nM | 3250 nM | > 100000 nM | 3270 nM | 24400 nM | 18000 nM | > 100000 nM | 4400 nM | > 100000 nM | 3010 nM | 32700 nM | 6940 nM | > 100000 nM
COc1ccc(C(=O)c2cc3c(N)c(C(=O)Nc4cccc(Br)c4C)sc3nc2C)cc1 | 23.8 nM | 260 nM | 56.2 nM | > 100000 nM | 194 nM | – | 28.2 nM | 95.4 nM | 39.6 nM | > 100000 nM | 39.4 nM | 1050 nM | 474 nM | > 100000 nM | 62.4 nM | > 100000 nM | 35.4 nM | – | 45.6 nM | > 100000 nM
